Measurements reported in ChEMBL document CHEMBL4808164, “Giffonins, Antioxidant Diarylheptanoids from Corylus avellana, and Their Ability to Prevent Oxidative Changes in Human Plasma Proteins” (J Nat Prod, 2021).
Activity calls are given as the source filed them. The calls are words filed in the database; no cut-off is given here.

Tests used:
Plasma [1] = assay: Effect on auto-carbonylation of human plasma protein at 0.1 to 100 uM; format: ADME, cell-free; settings: dose 0.1-100 µM
Plasma [2] = assay: Antioxidant activity in human plasma protein assessed as reduction of H2O2/Fe2+-induced oxidation of thiol group at 10 uM incubated for 30 mins by Ellman reagent based spectrophotometry; format: functional, cell-free
Plasma [3] = assay: Effect on autoxidation of thiol group in human plasma protein at 0.1 to 100 uM by Ellman reagent based spectrophotometry; format: ADME, cell-free; settings: dose 0.1-100 µM
Plasma [4] = assay: Antioxidant activity in human plasma protein assessed as reduction of H2O2-induced oxidation of thiol group at 10 uM incubated for 30 mins by Ellman reagent based spectrophotometry; format: functional, cell-free
Plasma [5] = assay: Antioxidant activity in human plasma assessed as inhibition of H2O2/[…]-induced lipid peroxidation at 10 uM incubated for 30 mins by TBARS assay; format: functional, cell-free
Plasma [6] = assay: Antioxidant activity in human plasma assessed as inhibition of H2O2-induced lipid peroxidation at 10 uM incubated for 30 mins by TBARS assay; format: functional, cell-free
Plasma [7] = assay: Antioxidant activity in human plasma protein assessed as reduction of H2O2-induced plasma protein carbonylation at 10 uM incubated for 30 mins; format: functional, cell-free
Plasma [8] = assay: Antioxidant activity in human plasma protein assessed as reduction of H2O2/Fe2+-induced plasma protein carbonylation at 10 uM incubated for 30 mins; format: functional; design: scale not given: the % may be the effect or the level left

Row | Structure (SMILES) | Activity (Plasma [1]) | Activity (Plasma [2]) | Activity (Plasma [3]) | Activity (Plasma [4]) | inhibition (Plasma [5]) [%] | inhibition (Plasma [6]) [%] | Activity (Plasma [7]) | Activity (Plasma [8]; 0.5 h) [%] | Activity (Plasma [8])
1 | COc1c2cc(c(OC)c1O)Oc1ccc(cc1)CCC(=O)CC/C=C\2 | Non-Toxic | Active | Non-Toxic | Active |  |  |  |  | 
2 | COc1c2cc(c(OC)c1O)Oc1ccc(cc1)[C@@H](O)C[C@H](O)CC/C=C/2 |  |  |  |  | 4 | 2.7 |  |  | 
3 | COc1c2cc(c(OC)c1O)Oc1ccc(cc1)CC[C@@H](O)/C=C/C=C\2 | Non-Toxic | Active | Non-Toxic | Active |  |  | Active | 65 | 
4 | COc1c(O)cc2cc1Oc1ccc(cc1)CC[C@@H](O)/C=C/C=C\2 | Non-Toxic | Active | Non-Toxic | Active |  |  | Active |  | Active
5 | COc1c2cc(c(OC)c1O)Oc1ccc(cc1)CCCC[C@@H](O)/C=C\2 | Non-Toxic | Active | Non-Toxic | Active |  |  | Active |  | Active
6 | O=C1CCc2ccc(O)c(c2)-c2cc(ccc2O)C[C@H](O)C[C@H]1O | Non-Toxic | Active | Non-Toxic | Active | 34.1 | 44.4 | Active |  | Active
7 | O=C1/C=C/CCc2ccc(O)c(c2)-c2cc(ccc2O)CC1 | Non-Toxic | Active | Non-Toxic | Active |  |  |  |  | 
8 | O=C1C[C@@H](O)Cc2ccc(O)c(c2)-c2cc(ccc2O)C[C@H](O)[C@H]1O |  |  |  |  | 4.2 | 6.2 |  |  | 
9 | Oc1ccc2cc1-c1cc(ccc1O)C[C@H](O)[C@H](O)C(O)[C@@H](O)[C@H](O)C2 (some centres undefined) |  |  |  |  | 10.4 | 33.6 |  |  | 
10 | O=C1CCc2ccc(O)c(c2)-c2cc(ccc2O)C[C@H](O)[C@@H](O)[C@@H]1O | Non-Toxic | Active | Non-Toxic | Active |  |  | Active |  | Active
11 | O=C1CCc2ccc(O)c(c2)-c2cc(ccc2O)C[C@@H](O)[C@H](O)C1 |  |  |  |  | 11.2 | 3.9 |  |  | 
12 | COc1c2cc(c(OC)c1O)Oc1ccc(cc1)[C@@H](O)C[C@H](O)/C=C/C=C/2 | Non-Toxic | Active | Non-Toxic | Active | 25.5 | 24.2 | Active | 65 | 
13 | COc1cc(/C=C/C(=O)CC(=O)/C=C/c2ccc(O)c(OC)c2)ccc1O |  |  |  |  | 23.2 | 20.6 |  |  | 
14 | Oc1ccc2cc1-c1cc(ccc1O)C[C@H](O)[C@@H](O)[C@@H](O)C[C@@H](O)C2 |  |  |  |  | 14.4 | 33.3 |  |  | 
15 | O=C1CCc2ccc(O)c(c2)-c2cc(ccc2O)C[C@H](O[C@@H]2O[C@H](CO)[C@@H](O)[C@H](O)[C@H]2O)C[C@@H]1O |  |  |  |  | 4.8 | 3.9 |  |  | 
16 | O=C1[C@@H](O)Cc2ccc(O)c(c2)-c2cc(ccc2O)C[C@@H](O)[C@H](O)[C@H]1O |  |  |  |  | 23.9 | 3.8 |  |  | 
